The record followed here is ChEMBL document CHEMBL2424584, “Novel cross-link breaker based on zwitterion structure: synthesis, structure and druggability studies” (Eur J Med Chem, 2013).

For the test, the species on record is Rattus norvegicus. Description: Reversible of increased arterial stiffness associated with diabetes in rat. The class given is functional, organism-based.

Calls of active or inactive are those of the source. The calls are words filed in the database; no cut-off is given here.

In the case of `Cc1csc[n+]1CC(=O)[O-]`, the result was Active.
